The target in data set [1] is T1, Sodium channel protein type 9 subunit alpha (Homo sapiens, UniProt Q15858). Nature of the data set: Displacement of [3H]GX-545 from Nav1.7 VSD4 (unknown origin). On the technique in general: Loss of bound radioactivity is the signal in a displacement assay; it reports binding, not function.
Target sequence in this assay (Q15858 whole entry): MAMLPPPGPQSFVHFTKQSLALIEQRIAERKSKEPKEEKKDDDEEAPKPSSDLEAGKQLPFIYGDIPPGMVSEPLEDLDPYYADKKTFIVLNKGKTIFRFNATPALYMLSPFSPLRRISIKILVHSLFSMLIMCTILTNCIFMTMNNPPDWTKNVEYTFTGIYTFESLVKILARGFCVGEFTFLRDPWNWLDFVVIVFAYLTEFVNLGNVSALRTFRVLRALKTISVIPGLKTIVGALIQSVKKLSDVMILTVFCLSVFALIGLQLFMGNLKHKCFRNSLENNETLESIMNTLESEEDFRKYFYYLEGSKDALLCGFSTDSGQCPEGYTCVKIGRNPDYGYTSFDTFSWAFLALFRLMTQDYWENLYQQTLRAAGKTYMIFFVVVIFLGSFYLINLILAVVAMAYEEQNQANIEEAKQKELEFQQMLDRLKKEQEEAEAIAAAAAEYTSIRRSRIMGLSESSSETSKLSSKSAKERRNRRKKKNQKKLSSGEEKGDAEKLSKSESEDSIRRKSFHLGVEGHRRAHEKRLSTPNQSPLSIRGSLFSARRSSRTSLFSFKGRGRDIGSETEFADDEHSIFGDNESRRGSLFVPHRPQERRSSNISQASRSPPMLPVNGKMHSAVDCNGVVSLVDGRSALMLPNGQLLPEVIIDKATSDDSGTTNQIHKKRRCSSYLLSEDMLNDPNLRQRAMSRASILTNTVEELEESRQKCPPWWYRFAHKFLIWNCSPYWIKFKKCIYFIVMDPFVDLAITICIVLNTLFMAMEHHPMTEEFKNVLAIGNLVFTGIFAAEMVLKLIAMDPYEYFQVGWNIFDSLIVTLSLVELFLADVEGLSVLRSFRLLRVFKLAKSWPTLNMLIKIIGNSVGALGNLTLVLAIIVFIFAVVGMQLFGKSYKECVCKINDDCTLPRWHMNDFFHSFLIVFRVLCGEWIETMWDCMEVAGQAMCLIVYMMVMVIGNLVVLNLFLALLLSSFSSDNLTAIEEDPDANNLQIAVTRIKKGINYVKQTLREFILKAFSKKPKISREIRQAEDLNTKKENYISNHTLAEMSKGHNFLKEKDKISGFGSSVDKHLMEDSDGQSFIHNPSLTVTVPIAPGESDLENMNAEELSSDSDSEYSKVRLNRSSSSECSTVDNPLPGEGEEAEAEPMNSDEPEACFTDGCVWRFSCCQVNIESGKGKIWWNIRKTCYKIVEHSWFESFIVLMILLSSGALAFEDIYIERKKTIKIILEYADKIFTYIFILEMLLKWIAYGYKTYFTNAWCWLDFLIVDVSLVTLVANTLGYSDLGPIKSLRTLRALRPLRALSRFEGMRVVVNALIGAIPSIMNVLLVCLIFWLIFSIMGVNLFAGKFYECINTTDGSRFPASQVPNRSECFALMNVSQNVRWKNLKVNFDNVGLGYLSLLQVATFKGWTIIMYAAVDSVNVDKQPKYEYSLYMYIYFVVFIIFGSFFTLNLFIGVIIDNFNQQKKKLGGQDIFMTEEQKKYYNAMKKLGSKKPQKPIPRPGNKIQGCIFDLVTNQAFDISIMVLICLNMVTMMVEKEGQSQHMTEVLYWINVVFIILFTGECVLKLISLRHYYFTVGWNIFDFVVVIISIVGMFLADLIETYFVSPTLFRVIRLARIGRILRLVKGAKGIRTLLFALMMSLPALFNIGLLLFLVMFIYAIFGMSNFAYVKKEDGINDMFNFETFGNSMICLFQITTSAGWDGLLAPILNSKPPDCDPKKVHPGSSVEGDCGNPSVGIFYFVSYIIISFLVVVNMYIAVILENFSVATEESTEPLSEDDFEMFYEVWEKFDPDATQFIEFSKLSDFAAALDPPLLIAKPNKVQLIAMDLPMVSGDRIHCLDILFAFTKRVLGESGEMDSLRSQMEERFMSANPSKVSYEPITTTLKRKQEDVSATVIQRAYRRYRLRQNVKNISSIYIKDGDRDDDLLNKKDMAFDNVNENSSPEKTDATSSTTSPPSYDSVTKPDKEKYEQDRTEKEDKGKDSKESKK
Data set [2] deals with T1, Sodium channel protein type 9 subunit alpha. The data set is described as follows: Inhibition of human Nav1.7 by patch clamp electrophysiology.
Target sequence in this assay (Q15858 whole entry): as above
In data set [3] the target is Sodium channel protein type 5 subunit alpha (Homo sapiens, UniProt Q14524). Nature of the data set: Inhibition of human Nav1.5 by patch clamp electrophysiology.
Data set [4] concerns the target T1, Sodium channel protein type 9 subunit alpha. Nature of the data set: Inhibition of human Nav1.7 assessed as fold shift in IC50 in presence of BSA by sodium flux assay.
Target sequence in this assay (Q15858 whole entry, looked up): as the sequence (Q15858 whole entry) above
A short description of data set [5]: Metabolic stability in human liver microsomes assessed as hepatic clearance. The class given is ADME, Microsome. (In general: Microsomes from liver hold many membrane-bound enzymes, among them those of drug oxidation.)
The nature of data set [6]: Metabolic stability in mouse liver microsomes assessed as hepatic clearance. In kind it is ADME, Microsome.
Data set [7] is described as follows: AUC in mouse at 3 mg/kg, po. The class given is ADME, organism-based. The following applies: in vivo, read-out: AUC.
The target of data set [8] is T1, Sodium channel protein type 9 subunit alpha. The data set is described as follows: Inhibition of human Nav1.7 by sodium flux assay.
Target sequence in this assay (Q15858 whole entry): as above

The structures appear in SMILES notation.

Sodium channel protein type 5 subunit alpha, sequence (Q14524 whole entry): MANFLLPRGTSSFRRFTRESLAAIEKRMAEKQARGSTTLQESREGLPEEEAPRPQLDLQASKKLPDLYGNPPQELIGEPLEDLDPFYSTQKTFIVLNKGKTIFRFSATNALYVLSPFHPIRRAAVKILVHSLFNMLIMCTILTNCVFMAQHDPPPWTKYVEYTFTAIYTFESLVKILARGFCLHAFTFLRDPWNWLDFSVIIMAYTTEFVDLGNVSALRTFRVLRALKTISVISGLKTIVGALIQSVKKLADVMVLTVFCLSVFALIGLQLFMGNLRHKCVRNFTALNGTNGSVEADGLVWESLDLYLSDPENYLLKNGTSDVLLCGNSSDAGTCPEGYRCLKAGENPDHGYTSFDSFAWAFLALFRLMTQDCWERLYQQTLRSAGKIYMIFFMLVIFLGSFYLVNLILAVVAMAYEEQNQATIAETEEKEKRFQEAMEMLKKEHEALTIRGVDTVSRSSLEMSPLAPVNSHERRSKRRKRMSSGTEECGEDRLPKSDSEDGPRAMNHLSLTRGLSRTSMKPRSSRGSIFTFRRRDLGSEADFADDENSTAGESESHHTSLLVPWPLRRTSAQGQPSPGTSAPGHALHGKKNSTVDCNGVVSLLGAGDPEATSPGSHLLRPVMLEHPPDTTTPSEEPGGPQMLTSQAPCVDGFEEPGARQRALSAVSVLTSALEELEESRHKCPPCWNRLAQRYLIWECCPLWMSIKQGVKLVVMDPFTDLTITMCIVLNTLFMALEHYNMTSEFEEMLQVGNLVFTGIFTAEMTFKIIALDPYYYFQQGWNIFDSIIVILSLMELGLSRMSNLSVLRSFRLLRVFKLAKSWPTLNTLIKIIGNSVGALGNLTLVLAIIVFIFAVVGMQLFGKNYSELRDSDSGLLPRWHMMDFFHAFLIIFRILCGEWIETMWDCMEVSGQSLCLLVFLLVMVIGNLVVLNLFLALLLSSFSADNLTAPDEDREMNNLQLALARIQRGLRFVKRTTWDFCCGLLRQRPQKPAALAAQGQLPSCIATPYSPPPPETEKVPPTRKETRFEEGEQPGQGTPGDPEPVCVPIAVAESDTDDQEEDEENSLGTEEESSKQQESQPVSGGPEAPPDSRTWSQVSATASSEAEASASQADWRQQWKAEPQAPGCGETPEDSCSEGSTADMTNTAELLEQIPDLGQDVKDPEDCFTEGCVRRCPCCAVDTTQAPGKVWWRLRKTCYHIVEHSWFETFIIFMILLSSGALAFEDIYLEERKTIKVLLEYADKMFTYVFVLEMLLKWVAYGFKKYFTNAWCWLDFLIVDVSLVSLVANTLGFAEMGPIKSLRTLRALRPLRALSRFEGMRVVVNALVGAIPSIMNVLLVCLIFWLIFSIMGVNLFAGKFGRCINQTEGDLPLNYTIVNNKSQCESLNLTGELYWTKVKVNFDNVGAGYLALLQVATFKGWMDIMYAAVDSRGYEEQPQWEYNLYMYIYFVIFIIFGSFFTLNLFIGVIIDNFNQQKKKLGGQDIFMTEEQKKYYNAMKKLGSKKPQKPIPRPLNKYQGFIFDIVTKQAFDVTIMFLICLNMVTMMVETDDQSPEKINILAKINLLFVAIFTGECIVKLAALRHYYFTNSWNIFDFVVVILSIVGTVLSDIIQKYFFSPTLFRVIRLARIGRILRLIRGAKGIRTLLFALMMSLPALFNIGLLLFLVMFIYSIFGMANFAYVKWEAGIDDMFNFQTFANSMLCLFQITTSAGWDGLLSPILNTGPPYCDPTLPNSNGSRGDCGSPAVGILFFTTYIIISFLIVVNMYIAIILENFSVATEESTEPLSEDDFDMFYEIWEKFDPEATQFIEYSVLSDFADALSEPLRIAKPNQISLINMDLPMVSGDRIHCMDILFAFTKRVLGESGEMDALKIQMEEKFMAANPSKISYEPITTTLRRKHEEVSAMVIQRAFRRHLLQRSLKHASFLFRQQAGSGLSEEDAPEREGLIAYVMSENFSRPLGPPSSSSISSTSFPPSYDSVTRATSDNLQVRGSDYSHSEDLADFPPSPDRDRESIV

For orientation: Ki means a dissociation constant, usually derived from enzyme kinetics or from competition with a known ligand. The low end stands for tighter binding, the high end for weaker binding. `O=C(O)[C@@H]1C[C@H](O)CN1C(=O)c1cc(C2CC2)c(OCC23CC4CC(CC(C4)C2)C3)cc1F` came in with a Ki in data set [1] of 0.15 µM.

In general, IC50 refers to the point on the concentration scale where inhibition reaches its midpoint. The term AUC denotes concentration integrated over time. In data set [1], `C[C@@H]1[C@@H](C(=O)O)N(C(=O)c2cc(C3CC3)c(OCC34CC5CC(CC(C5)C3)C4)cc2F)C[C@@H]1F` came in with a Ki of 0.0064 µM. In addition, the IC50 in data set [2] amounted to 0.01 µM; in data set [3], 5.8 µM. The fold change (FC) in data set [4] amounted to 1. The CLhep predicted is 13 mL/min/kg in data set [5] and 64 mL/min/kg in data set [6]. The AUC in data set [7] is 0.16 µM·h.

For `O=C(O)[C@@H]1C[C@@H](O)CN1C(=O)c1cc(C2CC2)c(OCC23CC4CC(CC(C4)C2)C3)cc1F`, the affinity in data set [1], expressed as Ki, was 0.39 µM.

For the compound `C[C@@H]1C[C@@H](C(=O)O)N(C(=O)c2cc(C3CC3)c(OCC34CC5CC(CC(C5)C3)C4)cc2F)C1`, the Ki in data set [1] stood at 0.085 µM.

Compound `N#C[C@@H]1C[C@@H](C(=O)O)N(C(=O)c2cc(C3CC3)c(OCC34CC5CC(CC(C5)C3)C4)cc2F)C1` returned an inhibition constant Ki in data set [1] of 0.12 µM.

Turning to `C[C@@H]1[C@H](F)CN(C(=O)c2cc(C3CC3)c(OCC34CC5CC(CC(C5)C3)C4)cc2F)[C@@H]1C(=O)O`, the Ki in data set [1] stood at 0.22 µM.

`CO[C@@H]1CN(C(=O)c2cc(C3CC3)c(OCC34CC5CC(CC(C5)C3)C4)cc2F)[C@H](C(=O)O)[C@H]1C` gave an inhibitory constant (Ki) in data set [1] of 0.036 µM.

As for `C[C@H]1CCN(C(=O)c2cc(C3CC3)c(OCC34CC5CC(CC(C5)C3)C4)cc2F)[C@@H]1C(=O)O`, affinity in data set [1] was put at a Ki of 0.01 µM.

In data set [1], `O=C(c1cc(C2CC2)c(OCC23CC4CC(CC(C4)C2)C3)cc1F)C1CCC[C@H]1C(=O)O` (stereo not given in full) had an inhibition constant (Ki) of 0.0086 µM. The results for the IC50 in data set [2], in data set [3] and in data set [8] were 0.012 µM, 2.6 µM and 0.25 µM, respectively. In addition, the fold change (FC) in data set [4] came to 1.5. Moreover, the figures for the CLhep predicted in data set [5] and in data set [6] were 17 mL/min/kg and 61 mL/min/kg, respectively. In data set [7], the AUC stood at 0.53 µM·h.

Take `O=C(O)[C@@H]1[C@H](F)CCN1C(=O)c1cc(C2CC2)c(OCC23CC4CC(CC(C4)C2)C3)cc1F`: in data set [1], the Ki was determined as 0.17 µM.

`O=C(O)[C@@H]1[C@@H](O)CCN1C(=O)c1cc(C2CC2)c(OCC23CC4CC(CC(C4)C2)C3)cc1F`: affinity in data set [1] was put at a Ki of 0.6 µM.

In data set [1], `O=C(O)[C@@H]1C[C@@H](F)CN1C(=O)c1cc(C2CC2)c(OCC23CC4CC(CC(C4)C2)C3)cc1F` had a Ki of 0.007 µM.

The values above are taken from ChEMBL document CHEMBL6087427, “Discovery of novel cyclopentane carboxylic acids as potent and selective inhibitors of NaV1.7” (Bioorg Med Chem Lett, 2025).
